Source: US4071408A, “Neuraminidase” (Research Corporation, priority 1976, dated 1978)
Values joined by “and” are separate entries in the source; they are usually repeats but may differ in a detail not shown here. Equal values may be shown once.

System: Arthrobacter sialophilum neuraminidase (NANAase, E.C.3.2.1.18), purified extracellular enzyme
Experiment: Neuraminidase kinetics and effector tests (release of N-acetylneuraminic acid, citrate-phosphate buffer pH 6.0, 37° C.)
Type: biochemical
Description: Neuraminidase and related assays. The activity of enzyme preparations was determined as follows: A reaction mixture containing 40 μmols of citrate-phosphate buffer, pH 6.0, 1.0 mg of Collocalia mucoid and the enzyme fraction in a final volume of 0.50 ml was incubated at 37° C. Aliquots of 0.20 ml were withdrawn at 5 and 10 minutes, and the N-acetylneuraminic acid determined. In all experiments, zero time points were run for each extract. A unit of enzyme activity is defined as that amount which releases 1 μmol of N-acetylneuraminic acid per minute from the mucoid preparation, under conditions of the standard assay given above. Specific activity is expressed as units/mg of protein. Protein was determined with crystalline bovine serum albumin as standard. N-acetylneuraminate pyruvatelyase assays were carried out.
Enzyme characteristics. Enzyme activity increased linearly with concentration up to 0.28 mg/ml protein. The effect of pH on the activity was examined in citrate-phosphate buffer. A pH activity profile with Collocalia mucoid gave a broad optimum around 5-6. The Km values for Collocalia mucoid and N-acetylneuraminlactose were determined from the kinetic data given as inverse plots. […]

Row | Compound | Km (apparent Km from inverse plots of kinetic data, purified enzyme, read-out: Km for N-acetylneuraminlactose) | effect of EDTA on neuraminidase activity (EDTA between 10^-3 M and 10^-2 M, included in the assay mixture or preincubated with the enzyme for 30 min at 37° C.)
1 | N-acetylneuraminlactose | ~3.3 mM and 3.3 mM | 
2 | O=C(O)CN(CCN(CC(=O)O)CC(=O)O)CC(=O)O [EDTA] |  | no effect
